# Settings: buffer; pH 7.4; 200.0 µM
row,SMILES,solubility kinetic
1,CCOC(=O)CC(c1ccc(N)cc1)n1c(C)ccc1C (stereo unspecified),20.8 µg/mL
2,CSCCCNC(=S)N1CCc2ccccc2C1,> 42.1 µg/mL
3,Cc1cc(Cl)ccc1NC(=O)CCC(=O)N/N=C/c1cccnc1,> 51.7 µg/mL
4,CN(C)c1ccc(SC#N)cc1,4.2 µg/mL
5,CC(NC(=O)Nc1ccc(Cl)cc1)c1ccc2c(c1)OCO2 (stereo unspecified),2.8 µg/mL
6,Cc1cc(C)c2oc(-c3cccc(N)c3)nc2c1,3 µg/mL
7,O=C1CC(Sc2ncccc2C(=O)O)C(=O)N1 (stereo unspecified),> 37.8 µg/mL
8,Cc1ccc(CONC(=O)c2ccc(OC(F)F)cc2)cc1,9.5 µg/mL
9,COc1ccccc1CCNS(=O)(=O)c1cn(C)c(=O)n(C)c1=O,> 53 µg/mL
10,O=C1CN=C(c2cc([N+](=O)[O-])ccc2Cl)c2cc([N+](=O)[O-])ccc2N1,1.6 µg/mL
11,Nc1ccccc1SC/C=C/CSc1ccccc1N,12.8 µg/mL
12,COc1ccc(CN(C)CC(=O)N2CCc3ccccc3C2)cc1,> 48.7 µg/mL
13,O=CN1CCN(C(=O)c2ccc(Br)o2)CC1,> 43.1 µg/mL
14,Cc1ccc(C2Nc3ccccc3C(=O)N2CCN2CCNC2=O)cc1 (stereo unspecified),> 52.6 µg/mL
15,Cc1ccc(NC(=O)CC(N)=S)cc1,30.7 µg/mL
16,Cc1ncc(S(=O)(=O)C(C)(C)C)c(N)n1,27.2 µg/mL
17,CCS(=O)(=O)Nc1ccccc1C(N)=O,> 34.2 µg/mL
18,C=CCn1c(O)c(C(C)=NCC2CCCO2)c(=O)[nH]c1=O (stereo unspecified),> 44 µg/mL
19,N#Cc1ncn(-c2ccc(Oc3ccccc3)cc2)c1N,4 µg/mL
20,CCN(CC)c1ccc(NC(=O)c2c(C)noc2C)cc1,> 43.1 µg/mL
21,O=C(CCNS(=O)(=O)c1ccc(OC(F)(F)F)cc1)NC1CC1,> 52.8 µg/mL

row,SMILES,solubility kinetic
1,O=C1Nc2ccccc2C(c2ccccc2)=NC1O (stereo unspecified),> 37.8 µg/mL
2,O=S(=O)(Nc1ccc(Cl)cc1)c1cccc2nsnc12,> 48.9 µg/mL
3,CN(C(=O)Nc1cnc2ccccc2c1)c1ccccc1,> 41.6 µg/mL
4,Cc1ccc(-c2ccc(/C=N/O)o2)cc1[N+](=O)[O-],3.4 µg/mL
5,O=C(O)C1CCc2sc3[nH]c(=S)n(-c4ccccc4)c(=O)c3c21 (stereo unspecified),> 51.7 µg/mL
6,CCCCN(C(=O)CSc1nc(CCC)cc(=O)[nH]1)c1c(N)n(Cc2ccccc2)c(=O)[nH]c1=O,> 74.8 µg/mL
7,CCOc1ccc(Nc2nc(NCc3ccco3)nc(N)c2[N+](=O)[O-])cc1,< 0.1 µg/mL
8,CC(C)S(=O)(=O)c1cnc(-c2cccnc2)nc1N,37.7 µg/mL
9,O=S(=O)(NC1=NCCCCC1)c1ccccc1Cl,> 43 µg/mL
10,O=C(O)CNC(=O)c1ccc(N2CCOCC2)cc1[N+](=O)[O-],> 46.4 µg/mL
11,Cc1ccc(C(=O)COC(=O)C(C)N2C(=O)C3C4C=CC(C4)C3C2=O)cc1C (stereo unspecified),55.5 µg/mL
12,Cc1nc(CSc2nnc(N)s2)cs1,> 36.7 µg/mL
13,CC(=O)NCCc1ccc(C(=O)Cn2cnc3ccccc3c2=O)cc1,> 52.4 µg/mL
14,CCOc1ncccc1C(=O)Nc1ccccc1N1CCOCC1,> 49.1 µg/mL
15,CCOC(=O)/C(C#N)=C/Nc1cc(C(C)(C)C)sc1C(C)=O,< 0.3 µg/mL
16,CC(=O)c1ccc(NC(=O)C2CCCO2)cc1 (stereo unspecified),> 35 µg/mL
17,O=[N+]([O-])c1ccc(-c2cnc3ccccc3n2)cc1,0.6 µg/mL
18,Cc1cc(C(=O)Nc2cccc(NC(=O)c3ccco3)c2)ccc1[N+](=O)[O-],0.5 µg/mL
19,Cc1ccccc1OCC(=O)N1CCc2ccccc2C1,38.6 µg/mL
20,COc1ccccc1CNc1ncnc2sccc12,34.5 µg/mL
21,Cc1c[nH]c2ccccc12,6.8 µg/mL

row,SMILES,solubility kinetic
1,Cc1cccc(C)c1NC(=O)CN(C1CCCCC1)S(C)(=O)=O,> 50.8 µg/mL
2,CC1Cn2c(nc3sc4c(c3c2=O)CC(C)(C)OC4)N1CCO (stereo unspecified),> 50.3 µg/mL
3,NC(=S)Nc1ccc(Cl)c(Cl)c1,> 33.2 µg/mL
4,CN(C)C(=S)NC(C)(C)C,2.7 µg/mL
5,Cc1cccc(N2C(=O)CC(Sc3nccc(C)n3)C2=O)c1 (stereo unspecified),> 47 µg/mL
6,CCN1CCN(C(=O)/C=C/c2ccc(OC)c(OC)c2)CC1,> 45.7 µg/mL
7,COc1ccc(NC(=S)NCCN2CCOCC2)cc1,> 44.3 µg/mL
8,COc1ccc2nc(SCC(=O)NC3CCCC3)c(C)cc2c1,< 0.4 µg/mL
9,Cn1cc(CCCC(=O)NCc2ccccc2)c2ccccc21,29.2 µg/mL
10,O=C(c1ccc(-n2cccn2)cc1)N1CCc2ccccc2C1,> 45.5 µg/mL
11,Clc1ccc(-c2csc(-c3ccno3)n2)cc1,< 0.3 µg/mL
12,COc1cc2c(cc1OC)CN(C(=O)/C=C/c1ccc(F)cc1)CC2,46.9 µg/mL
13,COC(=O)CSc1[nH]c2ccccc2c1[N+](=O)[O-],> 39.9 µg/mL
14,Cc1ccc(C)c(OCC(=O)NC2CCCCCC2)c1,3.8 µg/mL
15,COc1ccc(-c2cc(C(=O)Nc3cccc(Cl)c3)no2)cc1,< 0.4 µg/mL
16,Cc1cc(Cl)ccc1NC(=O)CN1C(=O)NC2(CCCC2)C1=O,> 50.4 µg/mL
17,Nc1c(N=O)c(=O)[nH]c(=O)n1-c1ccccc1,> 34.8 µg/mL
18,O=C(O)c1ccccc1-c1ncc(-c2ccccc2)o1,> 39.8 µg/mL
19,COc1ccc(/C=C/C(=O)NC(=S)NCc2ccccc2)cc1OC,2.4 µg/mL
